Source: patent US7935815B2, “Imidazoyl pyridine compounds and salts thereof” (Eisai R&D Management Co., Ltd., priority 2007, dated 2011)

System: Aβ42 production
Experiment: Quantification of Aβ peptide in culture of neurons from rat fetus brain (Aβ ELISA)
Type: cell-based
Details: Rattus norvegicus, Neuron, 72 h, rat primary neuronal culture (embryonic day 18 Wistar rat cerebral cortex); cultured three days after addition of compound; Aβx-42 ELISA of the medium; read-out: Aβ42 production reducing effect IC50
Procedure: Quantification of Aβ Peptide in Culture of Neurons from Rat Fetus Brain
(1) Rat Primary Neuronal Culture
Primary neuronal cultures were prepared from the cerebral cortex of embryonic day 18 Wistar rats (Charles River Japan, Yokohama, Japan). Specifically, the embryos were aseptically removed from pregnant rats under ether anesthesia. The brain was isolated from the embryo and immersed in an ice-cold L-15 medium (Invitrogen Corp. Cat #11415-064, Carlsbad, Calif., USA, or SIGMA L1518, for example). The cerebral cortex was collected from the isolated brain under a stereoscopic microscope. The cerebral cortex fragments collected were enzymatically treated in an enzyme solution containing 0.25% trypsin (Invitrogen Corp. Cat #15050-065, Carlsbad, Calif., USA) and 0.01% DNase (Sigma D5025, St. Louis, Mo., USA) at 37° C. for 30 minutes to disperse the cells. Here, the enzymatic reaction was stopped by adding inactivated horse serum to the solution. The enzymatically treated solution was centrifuged at 1,500 rpm for five minutes to remove the supernatant. 5 to 10 ml of a medium was added to the resulting cell mass. Neurobasal medium (Invitrogen Corp. Cat #21103-049, Carlsbad, Calif., USA) supplemented with 2% B27 supplement (Invitrogen Corp. Cat #17504-044, Carlsbad, Calif., USA), 25 μM 2-mercaptoethanol (2-ME, WAKO Cat #139-06861, Osaka, Japan), 0.5 mM L-glutamine (Invitrogen Corp. Cat #25030-081, Carlsbad, Calif., USA), and Antibiotics-Antimycotics (Invitrogen Corp. Cat #15240-062, Carlsbad, Calif., USA) was used as the medium (Neurobasal/B27/2-ME). However, the above Neurobasal medium not supplemented with 2-ME (Neurobasal/B27) was used for the assay. The cells were redispersed by mild pipetting of the cell mass to which the medium was added. The cell dispersion was filtered through a 40-μm nylon mesh (Cell Strainer, Cat #35-2340, Becton Dickinson Labware, Franklin Lakes, N.J., USA) to remove the remaining cell mass, and thus a neuronal cell suspension was obtained. The neuronal cell suspension was diluted with the medium and then plated in a volume of 100 μl/well at an initial cell density of 5×10^5 cells/cm^2 in a 96-well polystyrene culture plate pre-coated with poly-L or D-lysine (Falcon Cat #35-3075, Becton Dickinson Labware, Franklin Lakes, N.J., USA coated with poly-L-lysine using the method shown below, or BIOCOAT™ cell environments Poly-D-lysine cell ware 96-well plate, Cat #35-6461, Becton Dickinson Labware, Franklin Lakes, N.J., USA). Poly-L-lysine coating was carried out as follows. 100 μg/ml of a poly-L-lysine (SIGMA P2636, St. Louis, Mo., USA) solution was aseptically prepared with a 0.15 M borate buffer (pH 8.5). 100 μl/well of the solution was added to the 96-well polystyrene culture plate and incubated at room temperature for one or more hours or at 4° C. overnight or longer. The coated 96-well polystyrene culture plate was washed with sterile water four or more times, and then dried or rinsed with, for example, sterile PBS or medium, and used for cell plating. The plated cells were cultured in the culture plate at 37° C. in 5% CO2-95% air for one day. Then, the total amount of the medium was replaced with a fresh Neurobasal™/B27/2-ME medium, and then the cells were cultured for further three days.
The drug was added to the culture plate on Day 4 of culture as follows. The total amount of the medium was removed from the wells, and 180 μl/well of Neurobasal medium not containing 2-ME and containing 2% B-27 (Neurobasal/B27) was added thereto. A solution of the test compound in dimethyl sulfoxide (hereinafter abbreviated as DMSO) was diluted with Neurobasal/B27 at 10-fold of the final concentration. 20 μl/well of the dilution was added to and sufficiently mixed with the medium. The final DMSO concentration was 1% or less. Only DMSO was added to the control group.
The cells were cultured for three days after addition of the compound, and the total amount of the medium was collected. […]

Structure (SMILES) | IC50 [nM]
CCCCC(O)c1ccc([C@H]2CCCn3nc(/C=C/c4ccc(-n5cnc(C)c5)c(OC)c4)nc32)cc1 (single isomer, unassigned) [Example 19, 1-{4-{2-{(E)-2-[3-methoxy-4-(4-methyl-1H-imidazol-1-yl)phenyl]vinyl}-5,6,7,8-tetrahydro[1,2,4]triazolo[1,5-a]pyridin-8-yl}phenyl}pentan-1-ol] | 43
COc1cc(/C=C/c2nc3n(n2)CCC[C@]3(O)c2ccc(C(C)C)cc2)ccc1-n1cnc(C)c1 (single isomer, unassigned) [Example 55, (−)-8-(4-isopropylphenyl)-2-{(E)-2-[3-methoxy-4-(4-methyl-1H-imidazol-1-yl)phenyl]vinyl}-5,6,7,8-tetrahydro[1,2,4]triazolo[1,5-a]pyridin-8-ol] | 28
COc1cc(/C=C/c2nc3n(n2)CCCC3(O)c2ccccc2F)ccc1-n1cnc(C)c1 (single isomer, unassigned) [Example 59, (−)-8-(2-fluorophenyl)-2-{(E)-2-[3-methoxy-4-(4-methyl-1H-imidazol-1-yl)phenyl]vinyl}-5,6,7,8-tetrahydro-[1,2,4]triazolo[1,5-a]pyridin-8-ol] | 45
COc1cc(/C=C/c2nc3n(n2)CCC[C@]3(C#N)c2cc(F)c(F)c(F)c2)ccc1-n1cnc(C)c1 (single isomer, unassigned) [Example 72, (−)-2-{(E)-2-[3-methoxy-4-(4-methyl-1H-imidazol-1-yl)phenyl]vinyl}-8-(3,4,5-trifluorophenyl)-5,6,7,8-tetrahydro[1,2,4]triazolo[1,5-a]pyridine-8-carbonitrile] | 26
COc1cc(/C=C(\F)c2nc3n(n2)CCC[C@]3(O)c2cc(F)c(F)c(F)c2)ccc1-n1cnc(C)c1 (single isomer, unassigned) [Example 94, (−)-2-{(Z)-1-fluoro-2-[3-methoxy-4-(4-methyl-1H-imidazol-1-yl)phenyl]vinyl}-8-(3,4,5-trifluorophenyl)-5,6,7,8-tetrahydro[1,2,4]triazolo[1,5-a]pyridin-8-ol] | 52
COc1cc(/C=C/c2nc3n(n2)CCC[C@]3(O)c2cc(F)c(F)c(F)c2)c(F)cc1-n1cnc(C)c1 (single isomer, unassigned) [Example 96, (−)-2-{(E)-2-[2-fluoro-5-methoxy-4-(4-methyl-1H-imidazol-1-yl)phenyl]vinyl}-8-(3,4,5-trifluorophenyl)-5,6,7,8-tetrahydro[1,2,4]triazolo[1,5-a]pyridin-8-ol] | 63
COc1cc(/C=C/c2nc3n(n2)CCC[C@H]3C2CCCCC2)ccc1-n1cnc(C)c1 (single isomer, unassigned) [Example 114, (−)-8-cyclohexyl-2-{(E)-2-[3-methoxy-4-(4-methyl-1H-imidazol-1-yl)phenyl]vinyl}-5,6,7,8-tetrahydro[1,2,4]triazolo[1,5-a]pyridine] | 51
COc1cc(/C=C/c2nc3n(n2)CCC[C@@H]3C2CCOCC2)ccc1-n1cnc(C)c1 (single isomer, unassigned) [Example 116, (−)-2-{(E)-2-[3-methoxy-4-(4-methyl-1H-imidazol-1-yl)phenyl]vinyl}-8-(tetrahydropyran-4-yl)-5,6,7,8-tetrahydro[1,2,4]triazolo[1,5-a]pyridine] | 173
COc1cc(/C=C/c2nc3n(n2)CCC[C@@H]3[C@H]2CCCN2Cc2ccccc2)ccc1-n1cnc(C)c1 (single isomer, unassigned) [Example 133, (−)-8-(1-benzylpyrrolidin-2-yl)-2-{(E)-2-[3-methoxy-4-(4-methyl-1H-imidazol-1-yl)phenyl]vinyl}-5,6,7,8-tetrahydro[1,2,4]triazolo[1,5-a]pyridine] | 65
COc1cc(/C=C/c2nc3n(n2)CCC3c2ccccc2)ccc1-n1cnc(C)c1 (single isomer, unassigned) [Example 141, (−)-2-{(E)-2-[3-methoxy-4-(4-methyl-1H-imidazol-1-yl)phenyl]vinyl}-7-phenyl-6,7-dihydro-5H-pyrrolo[1,2-b][1,2,4]triazole] | 36
COc1nc(/C=C/c2nc3n(n2)CCC[C@H]3c2cc(F)c(F)c(F)c2)ccc1-n1cnc(C)c1 (single isomer, unassigned) [Example 169, (−)-2-{(E)-2-[6-methoxy-5-(4-methyl-1H-imidazol-1-yl)pyridin-2-yl]vinyl}-8-(3,4,5-trifluorophenyl)-5,6,7,8-tetrahydro-[1,2,4]triazolo[1,5-a]pyridine] | 22
COc1nc(/C=C/c2nc3n(n2)CCCC3c2ccc(F)c(F)c2)ccc1-n1cnc(C)c1 (single isomer, unassigned) [Example 171, (−)-8-(3,4-difluorophenyl)-2-{(E)-2-[6-methoxy-5-(4-methyl-1H-imidazol-1-yl)pyridin-2-yl]vinyl}-5,6,7,8-tetrahydro-[1,2,4]triazolo[1,5-a]pyridine] | 17
COc1nc(/C=C/c2nc3n(n2)CCCC3c2ccc(F)cc2)ccc1-n1cnc(C)c1 (single isomer, unassigned) [Example 173, (−)-8-(4-fluorophenyl)-2-{(E)-2-[6-methoxy-5-(4-methyl-1H-imidazol-1-yl)pyridin-2-yl]vinyl}-5,6,7,8-tetrahydro-[1,2,4]triazolo[1,5-a]pyridine] | 37
COc1nc(/C=C/c2nc3n(n2)CCC[C@@H]3c2ccc(F)c(Cl)c2)ccc1-n1cnc(C)c1 (single isomer, unassigned) [Example 175, (−)-8-(3-chloro-4-fluorophenyl)-2-{(E)-2-[6-methoxy-5-(4-methyl-1H-imidazol-1-yl)pyridin-2-yl]vinyl}-5,6,7,8-tetrahydro-[1,2,4]triazolo[1,5-a]pyridine] | 38
COc1nc(/C=C/c2nc3n(n2)CCC[C@@H]3c2cc(F)c(F)cc2F)ccc1-n1cnc(C)c1 (single isomer, unassigned) [Example 179, (−)-8-(2,4,5-trifluorophenyl)-2-{(E)-2-[6-methoxy-5-(4-methyl-1H-imidazol-1-yl)pyridin-2-yl]vinyl}-5,6,7,8-tetrahydro[1,2,4]triazolo[1,5-a]pyridine] | 22
COc1nc(/C=C/c2nc3n(n2)CCC[C@@H]3c2cc(F)ccc2F)ccc1-n1cnc(C)c1 (single isomer, unassigned) [Example 183, (−)-8-(2,5-difluorophenyl)-2-{(E)-2-[6-methoxy-5-(4-methyl-1H-imidazol-1-yl)pyridin-2-yl]vinyl}-5,6,7,8-tetrahydro[1,2,4]triazolo[1,5-a]pyridine] | 48
COc1nc(/C=C/c2nc3n(n2)CCC[C@H]3c2ccc(F)cc2Br)ccc1-n1cnc(C)c1 (single isomer, unassigned) [Example 185, (−)-8-(2-bromo-4-fluorophenyl)-2-{(E)-2-[6-methoxy-5-(4-methyl-1H-imidazol-1-yl)pyridin-2-yl]vinyl}-5,6,7,8-tetrahydro-[1,2,4]triazolo[1,5-a]pyridine] | 34
COc1nc(/C=C/c2nc3n(n2)CCC[C@H]3c2ccc(F)cc2Cl)ccc1-n1cnc(C)c1 (single isomer, unassigned) [Example 187, (−)-8-(2-chloro-4-fluorophenyl)-2-{(E)-2-[6-methoxy-5-(4-methyl-1H-imidazol-1-yl)pyridin-2-yl]vinyl}-5,6,7,8-tetrahydro-[1,2,4]triazolo[1,5-a]pyridine] | 38
